Patent US8481526B2, “Fluoroquinolone carboxylic acid molecular crystals” (Bausch & Lomb Incorporated, priority 2009, dated 2013)
Where a name gives a salt, the structure may show the parent alone.

Legend:
Assay type in all cases: physicochemical
[1] = Equilibrium solubility in various solvents (HPLC); details: Water, 22° C. ± 2° C.
Procedure: (§1) A reversed phase gradient HPLC method was used for the analysis of besifloxacin solubility samples. The conditions are listed below:
The solubility of besifloxacin HCl was evaluated in several organic solvents. An excess of drug substance was equilibrated with 10 mL of each solvent for 24-48 hours at room temperature (24±3° C.) using either a small magnetic stirrer or a Burrell Wrist Action shaker. Samples were inspected visually, and if needed, more drug substance was added until excess solid persisted after stirring. The samples were then filtered through 0.45 μm Nylon or PVDF filters or centrifuged at 10,000 RPM for 15 minutes. The filtrate or the supernatant was diluted as needed using the HPLC diluent and analyzed by HPLC. When solubility was greater than 100 mg/mL, no attempt was made to determine the equilibrium solubility and the compound was described as “freely soluble” as per the USP definition.
(§2) The solubility of besifloxacin HCl, lot 050956330, was determined in distilled water as a function of pH by adjusting the pH with 1 N NaOH. Suspensions of the drug substance (about 50-150 mg in 10 mL distilled water) were equilibrated for 72-96 hours using a Burrell shaker. Laboratory temperature was 22±2° C. The pH of the suspensions was measured in the presence of excess solid prior to sampling. The samples were centrifuged in an Enprotech ISS-I13 centrifuge at 10,000 RPM for 15 minutes or filtered through 0.45[…] or PVDF filters. When samples were filtered, a volume of filtrate was discarded to allow saturation of filters. The supernatant or the filtrate was diluted as needed using the HPLC diluent prior to analysis. Sample concentration was monitored at varying time intervals to ensure complete equilibration. Also, sample concentration was reported as besifloxacin free base concentration rather than HCl salt.

[2] = Moisture sorption analysis (VTI moisture sorption balance); details: 25° C., 10% to 90% RH; listed as Besifloxacin HCl
Procedure: Moisture uptake and loss was monitored as a function of relative humidity using a VTI, moisture sorption balance. A 30-40 mg sample was loaded into a tared glass sample holder. The initial weight of the sample was accurately recorded. The sample was then dried under a steady stream of nitrogen for 2 hours at 40° C. After initial drying, the sample mass was equilibrated with dry nitrogen at 25° C. and the sample was exposed to progressive stepwise increases in humidity under controlled conditions. The sample was equilibrated for two hours at each new relative humidity. The moisture sorption behavior was monitored at 10% to 90% RH in 10% RH intervals and desorption was monitored from 90% to 10% RH. The % moisture gain/loss was recorded vs. the % RH.

[3] = pH-dependence of solubility in distilled water (HPLC); details: distilled water, aqueous buffer, thermodynamic from solid, water, 22° C. ± 2° C., reported as free base concentration, read-out: Solubility
Procedure: as §1, §2

[4] = XRPD of excess solids isolated from equilibrated solubility samples (form conversion); details: for Form conversion in aqueous media: pH>4
Procedure: Approximately 20-100 mg of powder was loaded onto a low background sample holder. Samples were analyzed on a Rigaku Miniflex (scanning configuration) and scanned from 5-60°, 2-theta at a rate of 1°2θ/minute with a sampling rate of 0.02 seconds. Patterns were analyzed using Jade software version 7.5, provided by Materials Data Inc.
Excess solids were isolated from equilibrated samples and analyzed by XRPD. […] As discussed below (XRPD section), this phase was identified as the crystalline besifloxacin free base.

[5] = Equilibrium solubility in various solvents (HPLC); details: 22° C. ± 2° C.; for solubility: solubility of free base

SMILES: N[C@@H]1CCCCN(c2c(F)cc3c(=O)c(C(=O)O)cn(C4CC4)c3c2Cl)C1 [besifloxacin HCl salt]
- USP def ([1]; listed as Besifloxacin HCL salt): sparingly soluble
- USP def ([1]; listed as Besifloxacin HCl salt): sparingly soluble
- solubility ([1]; saturated solution pH 3.6 (HCl salt), 8.1 (free base), solubility of free base): 10635 µg/mL
- Hygroscopicity / moisture sorption behaviour [2]: not hygroscopic
- solubility ([3]; pH 3.54): 10600 µg/mL
- solubility ([3]; pH 3.58): 10200 µg/mL
- solubility ([3]; pH 3.72): 10300 µg/mL
- solubility ([3]; pH 3.95): 4180 µg/mL
- solubility ([3]; pH 4.58): 710 µg/mL
- solubility ([3]; pH 4.87): 590 µg/mL
- solubility ([3]; pH 5.15): 240 µg/mL
- solubility ([3]; pH 5.17): 270 µg/mL
- solubility ([3]; pH 5.43): 220 µg/mL
- solubility ([3]; pH 5.95): 120 µg/mL
- solubility ([3]; pH 6.31): 100 µg/mL
- solubility ([3]; pH 6.45): 100 µg/mL
- solubility ([3]; pH 6.49): 80 µg/mL
- solubility ([3]; pH 6.72): 80 µg/mL
- solubility ([3]; pH 8.14): 80 µg/mL
- solubility ([3]; pH 9.11): 80 µg/mL
- solubility ([3]; pH 9.59): 100 µg/mL
- solubility ([3]; pH 9.63): 100 µg/mL
- solubility ([3]; pH 10.37): 270 µg/mL
- solubility ([3]; pH 10.85): 850 µg/mL
- Form conversion in aqueous media [4]: dissolve and precipitate in a different crystalline form
- Form conversion in aqueous media ([4]; listed as besifloxacin HCl): convert in aqueous media (pH>4) to a new crystalline phase
- Form conversion of excess solid ([4]; aqueous pH solubility samples, pHs>3.5-4.0): converted to a different crystalline phase
- Form conversion of excess solid ([4]; equilibrated in organic solvents): no form conversions were observed
- USP def ([5]; Acetonitrile): Insoluble
- USP def ([5]; Acetonitrile, listed as Besifloxacin HCL salt): insoluble
- USP def ([5]; Acetonitrile, listed as Besifloxacin HCl salt): insoluble
- solubility ([5]; Acetonitrile): 12 µg/mL
- USP def ([5]; Ethanol): slightly soluble
- USP def ([5]; Ethanol, listed as Besifloxacin HCL salt): slightly soluble
- USP def ([5]; Ethanol, listed as Besifloxacin HCl salt): slightly soluble
- solubility ([5]; Ethanol): 1122 µg/mL
- USP def ([5]; Isopropanol): Insoluble
- USP def ([5]; Isopropanol, listed as Besifloxacin HCL salt): insoluble
- USP def ([5]; Isopropanol, listed as Besifloxacin HCl salt): insoluble
- solubility ([5]; Isopropanol): 89 µg/mL
- USP def ([5]; Methanol): slightly soluble
- USP def ([5]; Methanol, listed as Besifloxacin HCL salt): slightly soluble
- USP def ([5]; Methanol, listed as Besifloxacin HCl salt): slightly soluble
- solubility ([5]; Methanol): 9898 µg/mL
- USP def ([5]; Water): sparingly
